Measured values taken from PubChem BioAssay AID1062 (NMMLSC, 2008).
Active and inactive are the calls of the source.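 How the source made its calls: active means compounds blocking proteasome disassembly by more than 40% at the highest tested dose; inconclusive means compounds bright enough on their own to skew readings; inactive means the rest.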 Where a SMILES comes first, the peptide text is derived from it. The star is where a group is joined. Cbz = O=C(OCc1ccccc1)*

Target: 26S proteasome (lid disassembly, GFP-tagged; likely yeast)
Test: inhibitors of ATP-dependent 26S proteasome disassembly, dose response, biochemical, bead-based flow cytometry, GFP-tagged lid (AID 1062)
Conditions: GFP-proteasome beads; for EC50: disassembly inhibition; for inhibition of disassembly: at 100 µM (top of the series)

EC50 | inhibition of disassembly | SMILES
> 100 µM (inactive) |  | O=C(Nc1ccccc1)C1=C(O)CC(c2ccco2)CC1=Nc1ccccc1 (stereo unspecified)
 | inactive | CCOc1ccc(/C=c2\sc3nc(-c4ccco4)nn3c2=O)cc1OCC
 | inactive | CC(C)C[C@@H](C=O)NC(=O)[C@H](CC(C)C)NC(=O)[C@H](CC(C)C)NC(=O)OCc1ccccc1 (Cbz-Leu-Leu-Leu-aldehyde)
25.9 µM |  | Cc1cccc(NC(=O)c2sc3nc(-c4ccc(F)cc4)cn3c2C)n1
 | inactive | Cc1ccc2nc(NC(=O)C3CCCN(S(=O)(=O)c4cccc5nsnc45)C3)sc2c1 (stereo unspecified)
 | inactive | N#Cc1cc2c(nc1SCC(=O)Nc1sc3c(c1C#N)CCC3)CCCCC2
 | inactive | Fc1ccc2nc(Nc3nc4c(s3)CCCC4)sc2c1
 | inactive | CCN(CC)c1ccc(-c2c(C#N)c(N)nc(OC)c2C#N)cc1
 | inactive | Cc1ccc(C)c(N2CCN(S(=O)(=O)c3c(C)noc3/C=C/N(C)C)CC2)c1
> 100 µM (inactive) |  | COC(=O)c1ccc2c(c1)N(Cc1nc(-c3ccc(Cl)cc3)oc1C)C(=O)C1CCCN21 (stereo unspecified)
 | inactive | O=C1CC(c2ccccc2)Cc2nc(N3CCc4ccccc43)ncc21 (stereo unspecified)
 | inactive | Cc1noc(/C=C/c2ccco2)c1S(=O)(=O)N1CCC(C(=O)N2c3ccccc3CC2C)CC1 (stereo unspecified)
 | inactive | Cc1noc(/C=C/c2ccco2)c1S(=O)(=O)N1CCC(C(=O)N(C)Cc2ccccc2)CC1
 | inactive | CCCOc1ccc(/C=c2\sc3nc(-c4ccco4)nn3c2=O)cc1OCC
 | inactive | Cc1noc(/C=C/c2ccco2)c1S(=O)(=O)N1CCC(C(=O)N2CCc3ccccc3C2)CC1
 | inactive | O=c1cc(Nc2ccc3c(c2)OCCO3)[nH]c(=O)n1C1CCCCC1
 | inactive | COC(=O)c1ccc2c(c1)N(Cc1nc(-c3cccc(Cl)c3)oc1C)C(=O)C1CCCN21 (stereo unspecified)
61.7 µM |  | CC(=O)N1C(=O)C(=C2C=C(C)OC(C)=C2)c2ccccc21
inactive |  | O=C(CN1C(=O)C2CCCN2c2ncc(Cl)cc21)NCc1ccc2c(c1)OCO2 (stereo unspecified)
 | inactive | COC(=O)[C@H]1[C@H]2C[C@@H]3c4[nH]c5cc(OC)ccc5c4CCN3C[C@H]2C[C@@H](OC(=O)c2cc(OC)c(OC)c(OC)c2)[C@@H]1OC
 | inactive | COC(=O)C1=C(C)N=c2s/c(=C/c3cccs3)c(=O)n2C1c1cccs1 (stereo unspecified)
